Assays:
P-selectin-Ig = test: Immunoprecipitation of versican from ACHN conditioned medium with P-selectin-Ig; assay type: binding; conditions: 30 mM sodium chlorate; ACHN cells; FIG. 1
Protocol: (§1) ACHN cells were pre-incubated at 37° C. for 6 hours in RPMI 1640 containing 10% by weight of bovine fetal serum in the presence or absence of 30 mM sodium chlorate. A confluent monolayer of the resulting ACHN cells was labeled by incubation for 18 hours in the presence or absence of 30 mM sodium chlorate, in a medium of either of:
(§2) Immunoprecipitation was performed as follows, according to the method described in the publication of Kawashima, H. et al. [Int. Immunol., 11, 393-405 (1999); all teachings of which are hereby incorporated by reference] except that beads were washed using buffer A (0.05% Tween 20, 20 mM HEPES-NaOH, 0.15M NaCl, 1 mM CaCl2, 1 mM MgCl2, pH6.8).
(§3) Each of the antibody and the Ig chimera shown in FIG. 1 (equivalent to 10 μg) was coupled to Protein A-Sepharose column (equivalent to 10 μL) by a conventional method, to obtain antibody-coupled Protein A-Sepharose or Ig chimera-coupled Protein A-Sepharose. […]
(§4) Thereafter, the beads were washed with the buffer A, to obtain precipitates. The resulting precipitates were subjected to SDS-agarose-PAGE, and thereafter, signal ascribed to ^35S label on a gel was detected by autoradiography.

L-selectin-Ig = target: T1, L-selectin-Ig (Homo sapiens, UniProt P14151); test: Immunoprecipitation of versican from ACHN conditioned medium with L-selectin-Ig; assay type: binding; conditions: 30 mM sodium chlorate; ACHN cells; FIG. 1
T1 construct: purchased R & D Systems Inc
T1 sequence (P14151 with tags, fused parts or gaps limits assumed): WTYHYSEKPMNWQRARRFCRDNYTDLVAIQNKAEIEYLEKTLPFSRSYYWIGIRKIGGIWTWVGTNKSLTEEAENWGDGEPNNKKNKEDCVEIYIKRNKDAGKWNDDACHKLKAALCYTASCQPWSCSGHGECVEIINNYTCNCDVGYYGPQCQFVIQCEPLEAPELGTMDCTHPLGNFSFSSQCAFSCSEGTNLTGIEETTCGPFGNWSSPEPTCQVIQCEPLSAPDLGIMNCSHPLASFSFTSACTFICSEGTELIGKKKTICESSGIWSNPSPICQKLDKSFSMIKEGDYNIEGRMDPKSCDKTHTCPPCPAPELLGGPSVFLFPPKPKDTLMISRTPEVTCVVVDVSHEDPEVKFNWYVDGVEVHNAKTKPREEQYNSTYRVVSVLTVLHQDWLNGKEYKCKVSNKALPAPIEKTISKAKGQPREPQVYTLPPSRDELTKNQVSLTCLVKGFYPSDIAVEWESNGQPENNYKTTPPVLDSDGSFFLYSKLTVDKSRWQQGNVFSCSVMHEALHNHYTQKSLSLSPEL
Protocol: as §1, §2, §3, §4

CD44-Ig = test: Immunoprecipitation of versican from ACHN conditioned medium with CD44-Ig; assay type: binding, human; conditions: 30 mM sodium chlorate; ACHN cells; FIG. 1
Protocol: as §1, §2, §3, §4

ACHN cells = test: Sulfation of versican in [35S]sulfate-labeled ACHN cells; assay type: cell-based; conditions: 30 mM sodium chlorate, relative to the case without treatment
Protocol: as §1
(i) Eagle minimum basal medium SMEM [sulfate-free; manufactured by BioWhittaker] containing 2% by weight of dialyzed bovine fetal serum in the presence of 0.2 mCi/ml [^35S]Na2SO4 [trade name: Sulfer-35; manufactured by ICN Radiochemicals], or
(ii) methionine-free RPMI 1640 medium [manufactured by Invitrogen] containing 2% by weight of dialyzed bovine fetal serum in the presence of 0.2 mCi/ml [^35S]-methionine [manufactured by ICN Radiochemicals].
as §2, with “pH6.8). […]” for “pH6.8).”
as §4

**Q.** How did the “effect of treatment on interaction between versican and P-selectin-Ig” value (P-selectin-Ig) turn out when `[Na+].[O-][Cl+2]([O-])[O-]` [sodium chlorate] was run?
**A.** inhibited

**Q.** What about the “effect of treatment on interaction between versican and L-selectin-Ig” value (L-selectin-Ig) of the same compound?
**A.** inhibited

**Q.** And the “effect of treatment on interaction between versican and CD44-Ig” value (CD44-Ig)?
**A.** not inhibited

**Q.** And the inhibition of sulfation (ACHN cells)?
**A.** more than 90%
